Test results as given in ChEMBL document CHEMBL4130588, “Ubiquitin-Specific Inhibitors for the Treatment of Cancers, Autoimmune, and Infectious Diseases” (ACS Med Chem Lett, 2017).

Key:
[1] = Inhibition of recombinant human His6-tagged USP28-5 (1 to 1077 residues) using Ub-Rh110 as substrate pretreated for 30 mins followed by substrate addition measured after 20 mins by fluorescence assay
[2] = target: T1, Ubiquitin carboxyl-terminal hydrolase 25 (Homo sapiens, UniProt Q9UHP3); experiment: Inhibition of recombinant human His6-tagged USP25 expressed in baculovirus infected Sf21 insect cells using Ub-Rh110 as substrate pretreated for 30 mins followed by substrate addition measured after 45 mins by fluorescence assay
T1 sequence (Q9UHP3 whole entry): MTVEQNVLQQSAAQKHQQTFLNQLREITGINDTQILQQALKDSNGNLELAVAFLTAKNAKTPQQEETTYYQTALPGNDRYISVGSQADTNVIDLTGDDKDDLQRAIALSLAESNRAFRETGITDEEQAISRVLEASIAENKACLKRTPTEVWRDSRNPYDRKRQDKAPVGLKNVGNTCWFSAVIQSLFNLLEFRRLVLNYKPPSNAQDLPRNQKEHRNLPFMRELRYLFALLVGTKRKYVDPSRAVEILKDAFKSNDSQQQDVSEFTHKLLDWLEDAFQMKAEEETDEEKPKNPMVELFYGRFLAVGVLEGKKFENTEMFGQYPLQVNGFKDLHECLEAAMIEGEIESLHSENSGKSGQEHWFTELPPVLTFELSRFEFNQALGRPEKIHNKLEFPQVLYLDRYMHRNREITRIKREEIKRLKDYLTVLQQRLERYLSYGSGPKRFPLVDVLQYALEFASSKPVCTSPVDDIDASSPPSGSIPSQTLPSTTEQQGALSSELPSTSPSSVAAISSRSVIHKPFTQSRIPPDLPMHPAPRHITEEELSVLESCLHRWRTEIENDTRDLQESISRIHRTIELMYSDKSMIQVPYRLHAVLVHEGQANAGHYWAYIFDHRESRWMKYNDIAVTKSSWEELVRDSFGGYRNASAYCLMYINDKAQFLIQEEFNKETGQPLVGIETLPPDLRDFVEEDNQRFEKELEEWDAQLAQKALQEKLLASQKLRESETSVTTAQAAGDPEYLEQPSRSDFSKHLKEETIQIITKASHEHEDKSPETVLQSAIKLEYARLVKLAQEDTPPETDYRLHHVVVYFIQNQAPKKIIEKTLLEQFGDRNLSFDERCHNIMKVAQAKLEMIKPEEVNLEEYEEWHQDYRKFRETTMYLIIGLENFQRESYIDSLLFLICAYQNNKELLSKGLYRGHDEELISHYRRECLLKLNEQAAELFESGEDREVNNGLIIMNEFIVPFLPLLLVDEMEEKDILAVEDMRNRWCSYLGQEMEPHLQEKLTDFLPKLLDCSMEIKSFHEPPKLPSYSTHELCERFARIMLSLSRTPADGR

SMILES	IC50 [1]	IC50 [2]
Cc1cnc2c(N)c(C(=O)NCCc3cc(F)c(N4CCNCC4)cc3F)sc2n1	200 to 2000 nM	2000 to 10000 nM
Cc1cnc2c(N)c(C(=O)NC[C@H](C)c3ccc(N4CC5CCC(C4)N5)c(F)c3)sc2n1	200 to 2000 nM	2000 to 10000 nM
Cc1cnc2c(N)c(C(=O)NCCc3ccc(N4CCNCC4)c(Cl)c3)sc2n1	200 to 2000 nM	–
Cc1cnc2c(N)c(C(=O)NC[C@@H](C)c3ccc(N4CC5CCC(C4)N5)c(F)c3)sc2n1	200 to 2000 nM	2000 to 10000 nM
Cc1cnc2c(N)c(C(=O)NCCc3ccc(N4CC5CCC(C4)N5)c(F)c3)sc2n1	< 200 nM	< 200 nM
Cc1cnc2c(N)c(C(=O)NCCc3ccc(N4CC5CCC(C4)N5)c(Cl)c3)sc2n1	< 200 nM	–
Cc1cnc2c(N)c(C(=O)NCCc3cc(F)c(N4CC5CCC(C4)N5)cc3F)sc2n1	< 200 nM	200 to 2000 nM
Cc1cnc2c(N)c(C(=O)NCCc3ccc(N4CCNCC4)cc3)sc2n1	200 to 2000 nM	–
